{
  "source": "patent US12134620B2",
  "about": "(ARAXES PHARMA LLC, priority 2018, dated 2024)",
  "data": [
    {"target": "T1, KRAS G12C 1-169, his-tagged protein, GDP-loaded (Homo sapiens, UniProt P01116, G12C)", "T1 construct": "KRAS G12C 1-169, his-tagged protein, GDP-loaded; His tag", "experiment": "Biochemical assay: covalent modification of KRAS G12C, analysed by mass spectrometry (RapidFire/TOF or Q-Exactive); also: time not given here", "assay_type": "binding", "settings": "Modification activity, modification percentage from MS peak intensities", "outline": "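GDP-loaded His-tagged KRAS G12C 1-169 (2 μM or 0.5 μM in 20 mM Hepes, 150 mM NaCl, 1 mM MgCl2) reacted with compound at 32 μM or 8 μM final (2% DMSO) for a set time, then quenched with formic acid. Percent covalent modification from deconvoluted intact-protein MS peak intensities (RapidFire/TOF or LC-Q Exactive).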", "values": [
      {"compound": "C=CC(=O)N1CC2(CCN(c3nc(N4CCOCC4)nc(-c4cccc5[nH]ncc45)c3C#N)C2)C1", "note": "[Compound I-95, 4-(2-acryloyl-2,6-diazaspiro[3.4]octan-6-yl)-6-(1H-indazol-4-yl)-2-morpholinopyrimidine-5-carbonitrile]", "Binding %": "+ (+ indicates binding activity greater than 0% and up to 50%)"},
      {"compound": "C=CC(=O)N1CC2(CCN(c3nc(N4CCOCC4)nc(-c4c(C)ccc5[nH]nc(C)c45)c3C#N)C2)C1", "note": "[Compound I-96, 4-(2-acryloyl-2,6-diazaspiro[3.4]octan-6-yl)-6-(3,5-dimethyl-1H-indazol-4-yl)-2-morpholinopyrimidine-5-carbonitrile]", "Binding %": "+++ (+++ indicates binding activity greater than 85%)"},
      {"compound": "C=CC(=O)N1CC2(CCN(c3nc(N4CCOCC4)nc(-c4c(C)ccc5cnn(C6CC6)c45)c3C#N)C2)C1", "note": "[Compound I-97, 4-(2-acryloyl-2,6-diazaspiro[3.4]octan-6-yl)-6-(1-cyclopropyl-6-methyl-1H-indazol-7-yl)-2-morpholinopyrimidine-5-carbonitrile]", "Binding %": "+ (+ indicates binding activity greater than 0% and up to 50%)"},
      {"compound": "C/C=C/C(=O)N1CC2(CCN(c3nc(OCc4ccccn4)nc(-c4c(C)ccc5[nH]ncc45)c3C#N)C2)C1", "note": "[Compound I-98, (E)-4-(2-(but-2-enoyl)-2,6-diazaspiro[3.4]octan-6-yl)-6-(5-methyl-1H-indazol-4-yl)-2-(pyridin-2-ylmethoxy)pyrimidine-5-carbonitrile]", "Binding %": "+ (+ indicates binding activity greater than 0% and up to 50%)"},
      {"compound": "CC#CC(=O)N1CC2(CCN(c3nc(OCc4ccccn4)nc(-c4c(C)ccc5[nH]ncc45)c3C#N)C2)C1", "note": "[Compound I-99, 4-(2-(but-2-ynoyl)-2,6-diazaspiro[3.4]octan-6-yl)-6-(5-methyl-1H-indazol-4-yl)-2-(pyridin-2-ylmethoxy)pyrimidine-5-carbonitrile]", "Binding %": "+ (+ indicates binding activity greater than 0% and up to 50%)"},
      {"compound": "C=CC(=O)N1CC2(CCN(c3nc(N4CCOCC4)nc(-c4cccc5ccccc45)c3C#N)C2)C1", "note": "[Compound I-100, 4-(2-acryloyl-2,6-diazaspiro[3.4]octan-6-yl)-2-morpholino-6-(naphthalen-1-yl)pyrimidine-5-carbonitrile]", "Binding %": "+ (+ indicates binding activity greater than 0% and up to 50%)"},
      {"compound": "C=CC(=O)N1CC2(CCN(c3nc(OC[C@@H]4CCCN4C)nc(-c4cccc5ccccc45)c3C#N)C2)C1", "note": "[Compound I-101, (S)-4-(2-acryloyl-2,6-diazaspiro[3.4]octan-6-yl)-2-((1-methylpyrrolidin-2-yl)methoxy)-6-(naphthalen-1-yl)pyrimidine-5-carbonitrile]", "Binding %": "+ (+ indicates binding activity greater than 0% and up to 50%)"},
      {"compound": "C=CC(=O)N1CC2(CCN(c3nc(OCc4ccccn4)nc(-c4c(C)ccc5cnn(C)c45)c3C#N)C2)C1", "note": "[Compound I-102, 4-(2-acryloyl-2,6-diazaspiro[3.4]octan-6-yl)-6-(1,6-dimethyl-1H-indazol-7-yl)-2-(pyridin-2-ylmethoxy)pyrimidine-5-carbonitrile]", "Binding %": "++ (++ indicates binding activity from 50 to 85%)"},
      {"compound": "C=CC(=O)N1CC2(CCN(c3nc(OC[C@@H]4CCCN4C)nc(-c4c(C)ccc5cnn(C6CC6)c45)c3C#N)C2)C1", "note": "[Compound I-103, 4-(2-acryloyl-2,6-diazaspiro[3.4]octan-6-yl)-6-(1-cyclopropyl-6-methyl-1H-indazol-7-yl)-2-(((S)-1-methylpyrrolidin-2-yl)methoxy)pyrimidine-5-carbonitrile]", "Binding %": "+ (+ indicates binding activity greater than 0% and up to 50%)"},
      {"compound": "CC#CC(=O)N1CC2(CCN(c3nc(OC[C@@H]4CCCN4C)nc(-c4c(C)ccc5[nH]ncc45)c3C#N)C2)C1", "note": "[Compound I-104, 4-(2-(but-2-ynoyl)-2,6-diazaspiro[3.4]octan-6-yl)-6-(5-methyl-1H-indazol-4-yl)-2-(((S)-1-methylpyrrolidin-2-yl)methoxy)pyrimidine-5-carbontrile]", "Binding %": "+ (+ indicates binding activity greater than 0% and up to 50%)"},
      {"compound": "C/C=C/C(=O)N1CC2(CCN(c3nc(OC[C@@H]4CCCN4C)nc(-c4c(C)ccc5[nH]ncc45)c3C#N)C2)C1", "note": "[Compound I-105, 4-(2-((E)-but-2-enoyl)-2,6-diazaspiro[3.4]octan-6-yl)-6-(5-methyl-1H-indazol-4-yl)-2-(((S)-1-methylpyrrolidin-2-yl)methoxy)pyrimidine-5-carbonitrile]", "Binding %": "+ (+ indicates binding activity greater than 0% and up to 50%)"},
      {"compound": "C=CC(=O)N1CC2(CCN(c3nc(OCc4ccccn4)nc(-c4c(C)ccc5cnn(C6CC6)c45)c3C#N)C2)C1", "note": "[Compound I-106, 4-(2-acryloyl-2,6-diazaspiro[3.4]octan-6-yl)-6-(1-cyclopropyl-6-methyl-1H-indazol-7-yl)-2-(pyridin-2-ylmethoxy)pyrimidine-5-carbontrile]", "Binding %": "+ (+ indicates binding activity greater than 0% and up to 50%)"},
      {"compound": "C=CC(=O)N1CC2(CCN(c3nc(OC[C@@H]4CCCN4C)nc(-c4ccccc4-c4cn[nH]c4)c3C#N)C2)C1", "note": "[Compound I-107, (S)-4-(2-(1H-pyrazol-4-yl)phenyl)-6-(2-acryloyl-2,6-diazaspiro[3.4]octan-6-yl)-2-((1-methylpyrrolidin-2-yl)methoxy)pyrimidine-5-carbonitrile]", "Binding %": "+ (+ indicates binding activity greater than 0% and up to 50%)"},
      {"compound": "C=CC(=O)N1CC2(CCN(c3nc(OC[C@@H]4CCCN4C)nc(-c4c(C)ccc5[nH]nc(N)c45)c3C#N)C2)C1", "note": "[Compound I-108, 4-(2-acryloyl-2,6-diazaspiro[3.4]octan-6-yl)-6-(3-amino-5-methyl-1H-indazol-4-yl)-2-(((S)-1-methylpyrrolidin-2-yl)methoxy)pyrimidine-5-carbonitrile]", "Binding %": "++ (++ indicates binding activity from 50 to 85%)"},
      {"compound": "C=CC(=O)N1CC2(CCN(c3nc(N4CCOC(c5ccccc5)C4)nc(-c4c(C)ccc5[nH]ncc45)c3C#N)C2)C1", "note": "(stereo not drawn) [Compound I-109, 4-(2-acryloyl-2,6-diazaspiro[3.4]octan-6-yl)-6-(5-methyl-1H-indazol-4-yl)-2-(2-phenylmorpholino)py-rimidine-5-carbonitrile]", "Binding %": "++ (++ indicates binding activity from 50 to 85%)"},
      {"compound": "C=CC(=O)N1CC2(CCN(c3nc(N4CCCC(N(C)C)C4)nc(-c4c(C)ccc5[nH]ncc45)c3C#N)C2)C1", "note": "(stereo not drawn) [Compound I-110, 4-(2-acryloyl-2,6-diazaspiro[3.4]octan-6-yl)-2-(3-(dimethylamino)piperi-din-1-yl)-6-(5-methyl-1H-indazol-4-yl)pyrimidine-5-carbonitrile]", "Binding %": "+++ (+++ indicates binding activity greater than 85%)"},
      {"compound": "C=CC(=O)N1CC2(CCN(c3nc(N4CCN(C)CC4=O)nc(-c4c(C)ccc5[nH]ncc45)c3C#N)C2)C1", "note": "[Compound I-111, 4-(2-acryloyl-2,6-diazaspiro[3.4]octan-6-yl)-6-(5-methyl-1H-indazol-4-yl)-2-(4-methyl-2-oxopiperazin-1-yl)pyrimidine-5-carbonitrile]", "Binding %": "+ (+ indicates binding activity greater than 0% and up to 50%)"},
      {"compound": "C=CC(=O)N1CC2(CCN(c3nc(N4CCC5(CC4)CN(C)C5)nc(-c4c(C)ccc5[nH]ncc45)c3C#N)C2)C1", "note": "[Compound I-112, 4-(2-acryloyl-2,6-diazaspiro[3.4]octan-6-yl)-6-(5-methyl-1H-indazol-4-yl)-2-(2-methyl-2,7-diazaspiro[3.5]nonan-7-yl)pyrimidine-5-carbonitrile]", "Binding %": "+++ (+++ indicates binding activity greater than 85%)"},
      {"compound": "C=CC(=O)N1CC2(CCN(c3nc(OCc4ccccn4)nc(-c4cccc5ccccc45)c3C#N)C2)C1", "note": "[Compound I-113, 4-(2-acryloyl-2,6-diazaspiro[3.4]octan-6-yl)-6-(naphthalen-1-yl)-2-(pyridin-2-ylmethoxy)pyrimidine-5-carbonitrile]", "Binding %": "+ (+ indicates binding activity greater than 0% and up to 50%)"},
      {"compound": "C=CC(=O)N1CC2(CCN(c3nc(OCc4ccccn4)nc(-c4cc(O)cc5ccccc45)c3C#N)C2)C1", "note": "[Compound I-114, 4-(2-acryloyl-2,6-diazaspiro[3.4]octan-6-yl)-6-(3-hydroxynaphthalen-1-yl)-2-(pyridin-2-ylmethoxy)pyrimidine-5-carbonitrile]", "Binding %": "+++ (+++ indicates binding activity greater than 85%)"},
      {"compound": "C=CC(=O)N1CC2(CCN(c3nc(OC[C@@H]4CCCN4C)nc(-c4cc(-c5cn[nH]c5)ccc4F)c3C#N)C2)C1", "note": "[Compound I-115, (S)-4-(2-acryloyl-2,6-diazaspiro[3.4]octan-6-yl)-6-(2-fluoro-5-(1H-pyrazol-4-yl)phenyl)-2-((1-methylpyrrolidin-2-yl)methoxy)pyrimidine-5-carbonitrile]", "Binding %": "+ (+ indicates binding activity greater than 0% and up to 50%)"},
      {"compound": "C=CC(=O)N1CC2(CCN(c3nc(OC[C@H]4CCN(C)C4)nc(-c4c(C)ccc5[nH]ncc45)c3C#N)C2)C1", "note": "[Compound I-116, 4-(2-acryloyl-2,6-diazaspiro[3.4]octan-6-yl)-6-(5-methyl-1H-indazol-4-yl)-2-(((S)-1-methylpyrrolidin-3-yl)methoxy)pyrimidine-5-carbonitrile]", "Binding %": "++ (++ indicates binding activity from 50 to 85%)"},
      {"compound": "C=CC(=O)N1CC2(CCN(c3nc(OC[C@@H]4COCCN4C)nc(-c4c(C)ccc5[nH]ncc45)c3C#N)C2)C1", "note": "[Compound I-117, 4-(2-acryloyl-2,6-diazaspiro[3.4]octan-6-yl)-6-(5-methyl-1H-indazol-4-yl)-2-(((S)-4-methylmorpholin-3-yl)methoxy)pyrimidine-5-carbonitrile]", "Binding %": "++ (++ indicates binding activity from 50 to 85%)"},
      {"compound": "C=CC(=O)N1CC2(CCN(c3nc(N4CCOCC4)nc(-c4c(C)ccc5[nH]ncc45)c3F)C2)C1", "note": "[Compound I-118, 1-(6-(5-fluoro-6-(5-methyl-1H-indazol-4-yl)-2-morpholinopyrimidin-4-yl)-2,6-diazaspiro[3.4]octan-2-yl)prop-2-en-1-one]", "Binding %": "++ (++ indicates binding activity from 50 to 85%)"}
    ]}
  ]
}
